Results taken from US20060069132A1, “Azolecarboxamide herbicides” (priority 2004, published 2006).

What was measured:
barnyardgrass [1] = experiment: Test B flooded paddy test; type: in vivo, Echinochloa crus-galli; conditions: 1000 g ai/ha, visual rating, scale 0 to 100 (0 no effect, 100 complete control), 13 to 15 days
In short: (§1)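 Visual control ratings, 0–100 versus untreated controls, taken after 13 to 15 days in the greenhouse. Blackgrass received a postemergence spray at the 1- to 4-leaf stage (2–18 cm); ducksalad, umbrella sedge and barnyardgrass were flooded-paddy treated at 2 leaves.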

large crabgrass = experiment: Test B pre-/postemergence herbicide test; type: in vivo, Digitaria sanguinalis; conditions: for Crabgrass, Large plant response rating: postemergence, scale 0 (no effect) to 100 (complete control)
In short: (§2)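 Seeds were planted and treated preemergence with compounds formulated in a non-phytotoxic solvent mixture containing surfactant, while plants at the 1- to 4-leaf stage (2 to 18 cm) received postemergence sprays. Flooded paddy plants were grown to the 2-leaf stage. After 13 to 15 days in a greenhouse, injury was visually rated 0–100 against untreated controls.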

corn = experiment: Test B pre-/postemergence herbicide test; type: in vivo, Zea mays; conditions: for Corn plant response rating: postemergence, scale 0 (no effect) to 100 (complete control)
In short: as §2

rice [2] = experiment: Test B flooded paddy test; type: in vivo, Oryza sativa; conditions: 1000 g ai/ha, visual rating, scale 0 to 100 (0 no effect, 100 complete control), 13 to 15 days
In short: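 Visual ratings, 0 (no effect) to 100 (complete control), made versus controls after 13–15 d greenhouse. Paddy plants treated at 2-leaf stage; postemergence plants at 1- to 4-leaf stage, 2–18 cm tall.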

Surinam grass = experiment: Test B pre-/postemergence herbicide test; type: in vivo, Urochloa decumbens; conditions: for Surinam Grass plant response rating: postemergence, scale 0 (no effect) to 100 (complete control)
In short: as §2

rice [3] = experiment: Test B pre-/postemergence herbicide test; type: in vivo, Oryza sativa; conditions: 0 = no effect, 100 = complete control, preemergence
In short: as §2

rice [4] = experiment: Test C flooded paddy test; type: in vivo, Oryza sativa
In short: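 Injury scored visually against controls on a 0 (no effect) to 100 (complete control) scale, 12 to 14 days after treatment in greenhouse. Flooded paddy plants treated at 2-leaf stage; postemergence plants at 1- to 4-leaf stage, 2 to 18 cm tall.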

lambsquarters = experiment: Test B pre-/postemergence herbicide test; type: in vivo, Chenopodium album; conditions: visual rating; for Lambsquarters plant response rating: postemergence, scale 0 (no effect) to 100 (complete control)
In short: as §2

[5] = test system: smallflower umbrella sedge; experiment: Test C flooded paddy test; type: in vivo, Cyperus difformis
cocklebur = experiment: Test B pre-/postemergence herbicide test; type: in vivo, Xanthium strumarium; conditions: for Cocklebur plant response rating: postemergence, scale 0 (no effect) to 100 (complete control)
In short: (§3)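 Response was scored visually 13 to 15 days after treatment against untreated greenhouse controls, 0 meaning no effect and 100 complete control. Formulations (solvent mixture plus surfactant) went onto soil after planting, onto foliage of 1- to 4-leaf plants, and onto 2-leaf plants in a flooded paddy set including rice and barnyardgrass.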

wild oat = experiment: Test B postemergence herbicide test; type: in vivo, Avena fatua; conditions: postemergence, visual rating, scale 0 (no effect) to 100 (complete control)
In short: (§4)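 After treating 2-leaf paddy plants or 2–18 cm postemergence plants (1 to 4 leaves) with formulated chemical, researchers kept them in a greenhouse for 13–15 days. Effects were judged visually versus controls: 0 indicates none, 100 total control.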

ducksalad [6] = experiment: Test C flooded paddy test; type: in vivo, Heteranthera limosa
blackgrass = experiment: Test B postemergence herbicide test; type: in vivo, Alopecurus myosuroides; conditions: postemergence, visual rating, scale 0 (no effect) to 100 (complete control)
In short: as §1

[7] = test system: small flower umbrella sedge; experiment: Test B flooded paddy test; type: in vivo, Cyperus difformis; conditions: 1000 g ai/ha, visual rating, scale 0 to 100 (0 no effect, 100 complete control), 13 to 15 days
In short: as §1

ducksalad [8] = experiment: Test B flooded paddy test; type: in vivo, Heteranthera limosa; conditions: 1000 g ai/ha, visual rating, scale 0 to 100 (0 no effect, 100 complete control), 13 to 15 days
In short: as §1

wheat = experiment: Test B postemergence herbicide test; type: in vivo, Triticum aestivum; design: key to Wheat plant response rating: 0 = no effect, 100 = complete control; conditions: postemergence, visual rating, scale 0 (no effect) to 100 (complete control)
In short: as §4

barnyardgrass [9] = experiment: Test C flooded paddy test; type: in vivo, Echinochloa crus-galli
In short: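 Weeds and wheat were sprayed after emergence, at a height of 2 to 18 cm (1–4 leaves), and paddy barnyardgrass was flooded and treated at two leaves. Assessment took place 12–14 days later in the greenhouse on a 0-to-100 visual control scale. A dash means no result was obtained.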

giant foxtail = experiment: Test B pre-/postemergence herbicide test; type: in vivo, Setaria faberi; conditions: for Foxtail, Giant plant response rating: postemergence, scale 0 (no effect) to 100 (complete control)
In short: as §2

velvetleaf = experiment: Test B pre-/postemergence herbicide test; type: in vivo, Abutilon theophrasti; conditions: for Velvetleaf plant response rating: postemergence, scale 0 (no effect) to 100 (complete control)
In short: as §2

morningglory = experiment: Test B pre-/postemergence herbicide test; type: in vivo, Ipomoea coccinea; conditions: for Morningglory plant response rating: postemergence, scale 0 (no effect) to 100 (complete control)
In short: as §3

pigweed = experiment: Test B pre-/postemergence herbicide test; type: in vivo, Amaranthus retroflexus; conditions: for Pigweed plant response rating: postemergence, scale 0 (no effect) to 100 (complete control)
In short: as §2

barnyardgrass [10] = experiment: Test B pre-/postemergence herbicide test; type: in vivo, Echinochloa crus-galli; conditions: for Barnyardgrass plant response rating: postemergence, scale 0 (no effect) to 100 (complete control)
In short: as §3

[11] = 125 g ai/ha, 0 = no effect, 100 = complete control, preemergence
[12] = 500 g ai/ha, visual rating, 0 = no effect, 100 = complete control, preemergence
[13] = 62 g ai/ha, scale 0 to 100 (0 no effect, 100 complete control)
[14] = 125 g ai/ha, scale 0 to 100 (0 no effect, 100 complete control)
[15] = 250 g ai/ha, scale of 0 to 100, 0 is no effect, 100 is complete control
[16] = 500 g ai/ha, visual rating after 12 to 14 days, scale 0 to 100 (0 no effect, 100 complete control)

CCNC(=O)c1ccc(F)c(NC(=O)c2sc(C(C)(C)C)nc2CC)c1 [Compound 226]
Barnyardgrass plant response rating (barnyardgrass [1]): 80 | Crabgrass, Large plant response rating (0 to 100 scale) (large crabgrass; [11]): 20 | Plant response rating, Crabgrass, Large (large crabgrass; [12]): 100 | Crabgrass, Large plant response rating (large crabgrass; 125 g ai/ha, visual rating): 20 | Crabgrass, Large plant response rating (large crabgrass; 500 g ai/ha, visual rating): 20 | Corn plant response rating (0 to 100 scale) (corn; [11]): 0 | Plant response rating, Corn (corn; [12]): 20 | Corn plant response rating (corn; 125 g ai/ha, visual rating): 10 | Corn plant response rating (corn; 500 g ai/ha, visual rating): 40 | Rice plant response rating (rice [2]): 80 | Surinam Grass plant response rating (0 to 100 scale) (Surinam grass; [11]): 10 | Plant response rating, Surinam Grass (Surinam grass; [12]): 40 | Surinam Grass plant response rating (Surinam grass; 125 g ai/ha, visual rating): 10 | Surinam Grass plant response rating (Surinam grass; 500 g ai/ha, visual rating): 20 | Rice plant response rating (0 to 100 scale) (rice [3]; 125 g ai/ha): 20 | Plant response rating, Rice (rice [3]; 500 g ai/ha, visual rating): 30 | Rice plant response rating (rice [4]; [13]): 0 | Rice plant response rating (rice [4]; [14]): 25 | Rice plant response rating (rice [4]; [15]): 45 | Plant response rating, Rice (rice [4]; [16]): 70 | Plant response rating, Lambsquarters (lambsquarters; 500 g ai/ha, 0 = no effect, 100 = complete control, preemergence): 90 | Lambsquarters plant response rating (lambsquarters; 125 g ai/ha): 40 | Lambsquarters plant response rating (lambsquarters; 500 g ai/ha): 60 | Sedge, Umbrella plant response rating [5, 13]: 10 | Sedge, Umbrella plant response rating [5, 14]: 10 | Sedge, Umbrella plant response rating [5, 15]: 40 | Plant response rating, Sedge, Umbrella [5, 16]: 70 | Cocklebur plant response rating (0 to 100 scale) (cocklebur; [11]): 0 | Plant response rating, Cocklebur (cocklebur; [12]): 0 | Cocklebur plant response rating (cocklebur; 125 g ai/ha, visual rating): 10 | Cocklebur plant response rating (cocklebur; 500 g ai/ha, visual rating): 20 | Oat, Wild plant response rating (wild oat; 125 g ai/ha): 30 | Oat, Wild plant response rating (wild oat; 500 g ai/ha): 30 | Ducksalad plant response rating (ducksalad [6]; [13]): 0 | Ducksalad plant response rating (ducksalad [6]; [14]): 0 | Ducksalad plant response rating (ducksalad [6]; [15]): 40 | Plant response rating, Ducksalad (ducksalad [6]; [16]): 65 | Blackgrass plant response rating (blackgrass; 125 g ai/ha): 20 | Blackgrass plant response rating (blackgrass; 500 g ai/ha): 20 | Sedge, Umbrella plant response rating [7]: 80 | Ducksalad plant response rating (ducksalad [8]): 70 | Wheat plant response rating (wheat; 125 g ai/ha): 20 | Wheat plant response rating (wheat; 500 g ai/ha): 30 | Barnyardgrass plant response rating (barnyardgrass [9]; [13]): 0 | Barnyardgrass plant response rating (barnyardgrass [9]; [14]): 0 | Barnyardgrass plant response rating (barnyardgrass [9]; [15]): 50 | Plant response rating, Barnyardgrass (barnyardgrass [9]; [16]): 60 | Foxtail, Giant plant response rating (0 to 100 scale) (giant foxtail; [11]): 20 | Plant response rating, Foxtail, Giant (giant foxtail; [12]): 70 | Foxtail, Giant plant response rating (giant foxtail; 125 g ai/ha, visual rating): 20 | Foxtail, Giant plant response rating (giant foxtail; 500 g ai/ha, visual rating): 20 | Velvetleaf plant response rating (0 to 100 scale) (velvetleaf; [11]): 10 | Plant response rating, Velvetleaf (velvetleaf; [12]): 50 | Velvetleaf plant response rating (velvetleaf; 125 g ai/ha, visual rating): 20 | Velvetleaf plant response rating (velvetleaf; 500 g ai/ha, visual rating): 20 | Morningglory plant response rating (0 to 100 scale) (morningglory; [11]): 0 | Plant response rating, Morningglory (morningglory; [12]): 10 | Morningglory plant response rating (morningglory; 125 g ai/ha, visual rating): 30 | Morningglory plant response rating (morningglory; 500 g ai/ha, visual rating): 80 | Pigweed plant response rating (0 to 100 scale) (pigweed; [11]): 40 | Plant response rating, Pigweed (pigweed; [12]): 70 | Pigweed plant response rating (pigweed; 125 g ai/ha, visual rating): 30 | Pigweed plant response rating (pigweed; 500 g ai/ha, visual rating): 60 | Barnyardgrass plant response rating (0 to 100 scale) (barnyardgrass [10]; [11]): 10 | Plant response rating, Barnyardgrass (barnyardgrass [10]; [12]): 60 | Barnyardgrass plant response rating (barnyardgrass [10]; 125 g ai/ha, visual rating): 10 | Barnyardgrass plant response rating (barnyardgrass [10]; 500 g ai/ha, visual rating): 20
